≈ marks a conversion by molar mass, not a printed value.
Legend:
[1] = system: Enterococcus faecalis (ATCC 29212); test: Glucose consumption susceptibility test, blood culture diluted in MHB with glucose (Example 1); type: cell-based; set-up: glucose concentration, t = 0 / glucose concentration, t = 60 / glucose concentration, t = 120 / glucose concentration, t = 180 / glucose concentration, t = 240 / dC/dT (rate of change in glucose concentration): unit not given here; details: E. faecalis; for glucose concentration, t = 0: 0 minutes; for glucose concentration, t = 60: 60 minutes; for glucose concentration, t = 120: 120 minutes; for glucose concentration, t = 180: 180 minutes; for glucose concentration, t = 240: 240 minutes
Protocol: (§1) Strains of Escherichia coli (ATCC 25922), Enterococcus faecalis (ATCC 29212) and Staphylococcus aureus (ATCC 29213) were inoculated in blood culture bottles (SVA, Uppsala, Sweden) and cultivated according to the manufacturer's instructions until positive.
(§2) Medium from each blood culture bottle was diluted 1:100 with cation adjusted Mueller-Hinton broth (SVA, Uppsala, Sweden) supplemented with glucose to a concentration of 1.0 mg/mL.
(§3) Glucose concentrations were measured at 0, 60, 120, 180, and 240 minutes using a WaveSense Jazz glucometer (AgaMatrix, Inc., Salem, N.H., USA) with accompanying test strips.
(§4) Susceptibility scores corresponding to MIC values were calculated as described above. A 80% threshold was applied, i.e. the lowest concentration of antibiotic that entailed a rate of change in glucose concentration that was equal to or less than 80% of the reference was selected as the Minimal Inhibitory Concentration. The rate of change was calculated between the measurements at 60 and 180 minutes.

[2] = system: Escherichia coli (ATCC 25922); test: as above; type: cell-based; set-up: glucose concentration, t = 0 / glucose concentration, t = 60 / glucose concentration, t = 120 / glucose concentration, t = 180 / dC/dT (rate of change in glucose concentration) / glucose concentration, t = 240: unit not given here; details: for F = the rate of change in glucose concentration in relation to the reference / dC/dT (rate of change in glucose concentration) / glucose concentration, t = 0 / glucose concentration, t = 60 / glucose concentration, t = 120 / glucose concentration, t = 180 / glucose concentration, t = 240: E. coli; for glucose concentration, t = 0: 0 minutes; for glucose concentration, t = 60: 60 minutes; for glucose concentration, t = 120: 120 minutes; for glucose concentration, t = 180: 180 minutes; for glucose concentration, t = 240: 240 minutes
Protocol: as §1, §2, §3, §4

For CO[C@@]1(NC(=O)Cc2cccs2)C(=O)N2C(C(=O)O)=C(COC(N)=O)CS[C@@H]21 [Cefoxitin, cefoxitin], the “F = the rate of change in glucose concentration in relation to the reference” value (from here on “F = the rate of change”) ([1]; antibiotic 0.25 μg/mL) was 93%, the “dC/dT (rate of change in glucose concentration)” value ([1]; antibiotic 0.25 μg/mL) was 34 and the “glucose concentration, t = 0” value ([1]; antibiotic 0.25 μg/mL) was 151. The “glucose concentration, t = 60” value ([1]; antibiotic 0.25 μg/mL) was 155, the “glucose concentration, t = 120” value ([1]; antibiotic 0.25 μg/mL) was 138 and the “glucose concentration, t = 180” value ([1]; antibiotic 0.25 μg/mL) was 88. For the same molecule, the “glucose concentration, t = 240” value ([1]; antibiotic 0.25 μg/mL) was 34, the “F = the rate of change” value ([1]; antibiotic 0.5 μg/mL) was 88% and the “dC/dT (rate of change in glucose concentration)” value ([1]; antibiotic 0.5 μg/mL) was 32. For the same molecule, the “glucose concentration, t = 0” value ([1]; antibiotic 0.5 μg/mL) was 145, the “glucose concentration, t = 60” value ([1]; antibiotic 0.5 μg/mL) was 150 and the “glucose concentration, t = 120” value ([1]; antibiotic 0.5 μg/mL) was 144. The “glucose concentration, t = 180” value ([1]; antibiotic 0.5 μg/mL) was 87, the “glucose concentration, t = 240” value ([1]; antibiotic 0.5 μg/mL) was 32 and the “F = the rate of change” value ([1]; antibiotic 1 μg/mL) was 85%. For the same molecule, the “dC/dT (rate of change in glucose concentration)” value ([1]; antibiotic 1 μg/mL) was 31, the “glucose concentration, t = 0” value ([1]; antibiotic 1 μg/mL) was 148 and the “glucose concentration, t = 60” value ([1]; antibiotic 1 μg/mL) was 159. The “glucose concentration, t = 120” value ([1]; antibiotic 1 μg/mL) was 142, the “glucose concentration, t = 180” value ([1]; antibiotic 1 μg/mL) was 98 and the “glucose concentration, t = 240” value ([1]; antibiotic 1 μg/mL) was 31. For the same molecule, the “F = the rate of change” value ([1]; antibiotic 2 μg/mL) was 99%, the “dC/dT (rate of change in glucose concentration)” value ([1]; antibiotic 2 μg/mL) was 36 and the “glucose concentration, t = 0” value ([1]; antibiotic 2 μg/mL) was 149. For the same molecule, the “glucose concentration, t = 60” value ([1]; antibiotic 2 μg/mL) was 169, the “glucose concentration, t = 120” value ([1]; antibiotic 2 μg/mL) was 145 and the “glucose concentration, t = 180” value ([1]; antibiotic 2 μg/mL) was 98. For the same molecule, the “glucose concentration, t = 240” value ([1]; antibiotic 2 μg/mL) was 36, the “F = the rate of change” value ([1]; antibiotic 4 μg/mL) was 74% and the “dC/dT (rate of change in glucose concentration)” value ([1]; antibiotic 4 μg/mL) was 27. The “glucose concentration, t = 0” value ([1]; antibiotic 4 μg/mL) was 150, the “glucose concentration, t = 60” value ([1]; antibiotic 4 μg/mL) was 159 and the “glucose concentration, t = 120” value ([1]; antibiotic 4 μg/mL) was 146. For the same molecule, the “glucose concentration, t = 180” value ([1]; antibiotic 4 μg/mL) was 106, the “glucose concentration, t = 240” value ([1]; antibiotic 4 μg/mL) was 27 and the “F = the rate of change” value ([1]; antibiotic 8 μg/mL) was 63%. The “dC/dT (rate of change in glucose concentration)” value ([1]; antibiotic 8 μg/mL) was 23, the “glucose concentration, t = 0” value ([1]; antibiotic 8 μg/mL) was 144 and the “glucose concentration, t = 60” value ([1]; antibiotic 8 μg/mL) was 149. For the same molecule, the “glucose concentration, t = 120” value ([1]; antibiotic 8 μg/mL) was 147, the “glucose concentration, t = 180” value ([1]; antibiotic 8 μg/mL) was 104 and the “glucose concentration, t = 240” value ([1]; antibiotic 8 μg/mL) was 23. The “F = the rate of change” value ([1]; antibiotic 16 μg/mL) was 68%, the “dC/dT (rate of change in glucose concentration)” value ([1]; antibiotic 16 μg/mL) was 25 and the “glucose concentration, t = 0” value ([1]; antibiotic 16 μg/mL) was 148. For the same molecule, the “glucose concentration, t = 60” value ([1]; antibiotic 16 μg/mL) was 154, the “glucose concentration, t = 120” value ([1]; antibiotic 16 μg/mL) was 148 and the “glucose concentration, t = 180” value ([1]; antibiotic 16 μg/mL) was 105. For the same molecule, the “glucose concentration, t = 240” value ([1]; antibiotic 16 μg/mL) was 25, the “F = the rate of change” value ([1]; antibiotic 32 μg/mL) was 74% and the “dC/dT (rate of change in glucose concentration)” value ([1]; antibiotic 32 μg/mL) was 27. The “glucose concentration, t = 0” value ([1]; antibiotic 32 μg/mL) was 148, the “glucose concentration, t = 60” value ([1]; antibiotic 32 μg/mL) was 155 and the “glucose concentration, t = 120” value ([1]; antibiotic 32 μg/mL) was 140. The “glucose concentration, t = 180” value ([1]; antibiotic 32 μg/mL) was 102, the “glucose concentration, t = 240” value ([1]; antibiotic 32 μg/mL) was 27 and the MIC ([1]; Enterococcus faecalis, ATCC29212, 80% threshold, disregarded as rate of decrease was higher at 32 μg/mL, read-out: MIC value initially obtained (disregarded)) was 4 mg/L (≈ 9.36 µM). The “F = the rate of change” value ([2]; antibiotic 0.25 μg/mL) was 165%, the “dC/dT (rate of change in glucose concentration)” value ([2]; antibiotic 0.25 μg/mL) was 102 and the “glucose concentration, t = 0” value ([2]; antibiotic 0.25 μg/mL) was 145. For the same molecule, the “glucose concentration, t = 60” value ([2]; antibiotic 0.25 μg/mL) was 157, the “glucose concentration, t = 120” value ([2]; antibiotic 0.25 μg/mL) was 143 and the “glucose concentration, t = 180” value ([2]; antibiotic 0.25 μg/mL) was 41. For the same molecule, the “F = the rate of change” value ([2]; antibiotic 0.5 μg/mL) was 139%, the “dC/dT (rate of change in glucose concentration)” value ([2]; antibiotic 0.5 μg/mL) was 86 and the “glucose concentration, t = 0” value ([2]; antibiotic 0.5 μg/mL) was 139. For the same molecule, the “glucose concentration, t = 60” value ([2]; antibiotic 0.5 μg/mL) was 154, the “glucose concentration, t = 120” value ([2]; antibiotic 0.5 μg/mL) was 140 and the “glucose concentration, t = 180” value ([2]; antibiotic 0.5 μg/mL) was 54. For the same molecule, the “F = the rate of change” value ([2]; antibiotic 1 μg/mL) was 129%, the “dC/dT (rate of change in glucose concentration)” value ([2]; antibiotic 1 μg/mL) was 80 and the “glucose concentration, t = 0” value ([2]; antibiotic 1 μg/mL) was 144. The “glucose concentration, t = 60” value ([2]; antibiotic 1 μg/mL) was 150, the “glucose concentration, t = 120” value ([2]; antibiotic 1 μg/mL) was 143 and the “glucose concentration, t = 180” value ([2]; antibiotic 1 μg/mL) was 63. For the same molecule, the “F = the rate of change” value ([2]; antibiotic 2 μg/mL) was 102%, the “dC/dT (rate of change in glucose concentration)” value ([2]; antibiotic 2 μg/mL) was 63 and the “glucose concentration, t = 0” value ([2]; antibiotic 2 μg/mL) was 143. The “glucose concentration, t = 60” value ([2]; antibiotic 2 μg/mL) was 163, the “glucose concentration, t = 120” value ([2]; antibiotic 2 μg/mL) was 138 and the “glucose concentration, t = 180” value ([2]; antibiotic 2 μg/mL) was 75. The “F = the rate of change” value ([2]; antibiotic 4 μg/mL) was 19%, the “dC/dT (rate of change in glucose concentration)” value ([2]; antibiotic 4 μg/mL) was 12 and the “glucose concentration, t = 0” value ([2]; antibiotic 4 μg/mL) was 146. The “glucose concentration, t = 60” value ([2]; antibiotic 4 μg/mL) was 149, the “glucose concentration, t = 120” value ([2]; antibiotic 4 μg/mL) was 140 and the “glucose concentration, t = 180” value ([2]; antibiotic 4 μg/mL) was 125. The “glucose concentration, t = 240” value ([2]; antibiotic 4 μg/mL) was 116, the “F = the rate of change” value ([2]; antibiotic 8 μg/mL) was 18% and the “dC/dT (rate of change in glucose concentration)” value ([2]; antibiotic 8 μg/mL) was 11. The “glucose concentration, t = 0” value ([2]; antibiotic 8 μg/mL) was 145, the “glucose concentration, t = 60” value ([2]; antibiotic 8 μg/mL) was 164 and the “glucose concentration, t = 120” value ([2]; antibiotic 8 μg/mL) was 149. The “glucose concentration, t = 180” value ([2]; antibiotic 8 μg/mL) was 132, the “glucose concentration, t = 240” value ([2]; antibiotic 8 μg/mL) was 127 and the “F = the rate of change” value ([2]; antibiotic 16 μg/mL) was 6%. For the same molecule, the “dC/dT (rate of change in glucose concentration)” value ([2]; antibiotic 16 μg/mL) was 4, the “glucose concentration, t = 0” value ([2]; antibiotic 16 μg/mL) was 142 and the “glucose concentration, t = 60” value ([2]; antibiotic 16 μg/mL) was 152. For the same molecule, the “glucose concentration, t = 120” value ([2]; antibiotic 16 μg/mL) was 152, the “glucose concentration, t = 180” value ([2]; antibiotic 16 μg/mL) was 141 and the “glucose concentration, t = 240” value ([2]; antibiotic 16 μg/mL) was 145. The “F = the rate of change” value ([2]; antibiotic 32 μg/mL) was 5%, the “dC/dT (rate of change in glucose concentration)” value ([2]; antibiotic 32 μg/mL) was 3 and the “glucose concentration, t = 0” value ([2]; antibiotic 32 μg/mL) was 146. The “glucose concentration, t = 60” value ([2]; antibiotic 32 μg/mL) was 150, the “glucose concentration, t = 120” value ([2]; antibiotic 32 μg/mL) was 143 and the “glucose concentration, t = 180” value ([2]; antibiotic 32 μg/mL) was 142. The “glucose concentration, t = 240” value ([2]; antibiotic 32 μg/mL) was 137 and the MIC ([2]; Escherichia coli, ATCC25922, E.coli, 80% threshold of reference rate of change, 60 to 180 minutes, N/A = not susceptible, no MIC value can be calculated, read-out: MIC, Measured) was 4 mg/L (≈ 9.36 µM).

Reference: patent publication US20200370087A1, “METHOD FOR DETERMINING MICROBIAL SUSCEPTIBILITY TO ANTIBIOTIC AGENTS” (Ascilion AB, priority 2017, published 2020)
